Test results: patent US8691864B2, “Agents useful for reducing amyloid precursor protein and treating dementia and methods of use thereof” (priority 2000, dated 2014)

Experiments:
[1] = test system: secreted APP; experiment: ELISA for secreted APP in SHSY5Y cells; assay type: cell-based, human; conditions: 16 hours
Procedure: (§1) An enzyme-linked immunosorbent assay was developed to detect secreted APP in SHSY5Y cells, a human neuroblastoma cell line. The purpose of the screen was to discover small molecules that inhibit APP protein synthesis in SHSY5Y cells. SHSY5Y cells were plated at 1×10^5 cells/well in […] of DMEM containing 0.5% heat inactivated FBS in 96 well tissue culture treated plates (Falcon no. 35 3072). 144 MES compounds were tested at final concentrations of […] in 0.1% DMSO. Compounds were added and the plates incubated for 16 hours at 37° C./5% CO2. Maxisorp plates (Nunc no. 437958) were coated overnight with […] capture antibody (Biosource 44-100) diluted in Ca^++ and Mg^++ free PBS. Biosource 44-100 is a mouse mAb that recognizes aa 1-100 of human APP. Plates were blocked for 30 minutes with 1 mg/mL BSA in Ca^++ and Mg^++ free PBS. Plates were washed 3× with wash buffer (Ca^++ and Mg^++ free PBS+0.01% Tween20). […] of supernatants and non-cultured medium controls were transferred from culture plates to ELISA plates. Culture plates were reserved for toxicity analysis. Supernatants were incubated for 4 hours at RT on a plate shaker. After supernatant incubation, plates were washed 3×. Primary antibody (Signet Clone 6E-10 biotin) was added at 0.3125 mg/mL and incubated overnight at 4° C. The recognition site of 6E-10 is aa 1-17 of Ab. For detection, a 1:3000 dilution of horseradish peroxidase conjugated streptavidin (Endogen no. N-100) was incubated for 30 minutes. Plates were washed 3×. Enzyme activity was assessed by incubation with […] TMB substrate solution (Moss no. TMB-US) for 20 minutes. The reaction was stopped by the addition of […] 0.18M sulfuric acid. Optical density was read at 450 nm on Wallac Victor2 plate reader. During the first incubation, toxicity was determined using MTS assay, Cell Titer96 AQ reagent (Promega no. G5430). The background values from the non-cultured medium control were subtracted from the sample values and secreted APP levels and toxicity were expressed as % vehicle control. Of the 144 MES compounds screened, 12 inhibited secreted APP as determined by ELISA. The results are depicted in FIGS. 13A-M.
(§2) Using the experimental procedure outlined above, APP secretion and toxicity studies were performed on several other non-carbamate compounds, and the results are shown in Tables 3 and 4. The compound structures are provided in Table 2 in the application, which are identified by their MES number.

[2] = test system: SH-SY-5Y Cells; experiment: MTS toxicity assay in SHSY5Y cells; assay type: cell-based, human
Procedure: as §1, §2

Compound	APP Secretion by SH-SY-5Y Cells ([1]; Dose 2 uM) [% vehicle control]	APP Secretion by SH-SY-5Y Cells ([1]; Dose 6 uM) [% vehicle control]	APP Secretion by SH-SY-5Y Cells ([1]; Dose 20 uM) [% vehicle control]	APP Toxicity SH-SY-5Y Cells (MTS assay) ([2]; Dose 2 uM) [% vehicle control]	APP Toxicity SH-SY-5Y Cells (MTS assay) ([2]; Dose 6 uM) [% vehicle control]	APP Toxicity SH-SY-5Y Cells (MTS assay) ([2]; Dose 20 uM) [% vehicle control]
COC(=O)CC1(C)C(=O)N(C)c2ccc(OC)cc21 (stereo not drawn) [MES 9309]	100	106.4	100.9	100.85	98.6	101.1
COc1ccc2c(c1)[C@@](C)(CCN(C)C)C(=O)N2C [MES 9310]	104.8	97.85	98.95	101.85	99.9	97.7
CN(C)CC[C@]1(C)C(=O)N(C)c2ccc(O)cc21 [MES 9311]	102.45	103.05	102.7	101.1	101.25	99.55
CN1C(=O)C(=O)c2ccccc21 [MES 9312]	105.4	101.7	96.65	99.95	103.85	106.95
COc1ccc2c(c1)[C@](C)(CCN)C(=O)N2C.Cl [MES 9314]	111.25	99.15	109.4	100.15	100.85	100.6
COc1ccc2[nH]c3c(c2c1)CCN(C)C3 [MES 9316]	104.15	98.45	102	99.15	98.05	98.75
COC(=O)NCCC1C(=O)N(Cc2ccccc2)c2ccc(OC)cc21 (stereo not drawn) [MES 9317]	99.87	112.3	122	97.27	97.23	93.5
COc1ccc2c(c1)[C@]1(C)CCOC1N2C (stereo partly drawn) [MES 9318]	104.05	103.4	108.75	96.2	96.45	96.05
COc1ccc2c(c1)C(O)(c1ccccc1)C(=O)N2C (stereo not drawn) [MES 9319]	108.95	114.1	112.8	99.8	101.05	102.7
